Reference: patent publication US4117164A, “Aminomethyl-benzocycloheptenes and method of use” (Roussel Uclaf, priority 1976, dated 1978)
Counter-ions that a name gives are not always drawn.

Experiments:
[1] = Acute toxicity, intraperitoneal; conditions: mouse, in vivo, ip; mice, i.p., determined 48 hours later; read-out: DL50 dose which kills 50% of mice
Procedure: The DL50 dose which kills 50% of mice after intraperitoneal administration of the tested compound was determined 48 hours later and the DL50 for the compounds is reported in Table III.

serotonine (5HT) uptake = experiment: Inhibition of serotonine (5HT) uptake in vitro in impure brain synaptosomes; format: biochemical; conditions: synaptosomes from entire brain of female rat 19 to 21 days old, 14C-5HT 10^-7 M, 37° C., 5 minutes; read-out: I.C. 50, 50% inhibiting concentration of 14C-5HT uptake
Procedure: The inhibition of serotonine (5HT) uptake was measured in impure synaptosomes prepared from the entire brain of a female rat 19 to 21 days old using the technique of Kannengiesser et al [Biochemical Pharmacology, Vol. 22, (1973) p. 73].

[2] = test system: effects of monoamine oxidase inhibitor (nialamide); experiment: Potentiation of effects of monoamine oxidase inhibitor (nialamide) in mice, actimetric measurements; format: in vivo; set-up: key: Potentiation of the effects of nial amide for the tested product was expressed in increasing number of + sign for a determined dose in mg/kg; conditions: nialamide 100 mg/kg i.p. 30 minutes before, actimetric values every 30 minutes for 6 hours
Description: The administration of a monoamine oxidase inhibitor to mice induces a hyperactive movement of the animals which is able to be potentiated by an antidepressant. […] Potentiation of the effects of nial amide for the tested product was expressed in increasing number of + sign for a determined dose in mg/kg.

effects of L-dopa = experiment: Potentiation of effects of L-dopa in mice pretreated with iproniazide; format: in vivo; conditions: Mus musculus, ip, one hour before L-dopa 100 mg/kg i.p.; male mice, iproniazide 75 mg/kg i.p. 18 hours before; read-out: ED50 dose which potentiates by 50% the L-dopa effects
Procedure: The administration of L-dopa to mice pretreated 18 hours previously with iproniazide produced certain number of symptoms; muscular hypertonicity, hyperactivity, agitation crying, aggressiveness, salivation and exophthalmy. The intensity of these effects is potentiated by administration of an antidepressant one hour before the administration of L-dopa. Male mice received intraperitoneally 75 mg/kg of iproniazide 18 hours before the start of the test and the tested product was intraperitoneally administered in aqueous solution in increasing doses. One hour later, L-dopa was intraperitoneally administered at a dose of 100 mg/kg and the different symptoms were observed 15 and 30 minutes later. They were evaluated on a scale of 0 to 3 for each animal and the totals for each dose were determined.

Compound	LD50 at 48 h [1] [mg/kg]	IC50 (serotonine (5HT) uptake) [nM]	Potentiation of Nialamide ([2]; 5 mg/kg i.p.)	Potentiation of Nialamide ([2]; 20 mg/kg i.p.)	ED50 (effects of L-dopa) [mg/kg]
CN(C)CC1C=Cc2cc([N+](=O)[O-])ccc2CC1 (stereo not drawn) [1 - 2]	150	630	+	+	
CNCC1C=Cc2cc([N+](=O)[O-])ccc2CC1 (stereo not drawn) [Example 3, N-methyl-2-nitro-6,7-dihydro [5H] benzocycloheptene-7-methanamine hydrochloride]	100	590		+	20
CNCC1C=Cc2cc(N)ccc2CC1 (stereo not drawn) [Example 4, di-(N-methyl-2-amino-6,7-dihydro [5H]benzocycloheptene-7-methanamine) fumarate]	100	6800			
CNCC1C=Cc2cc(OC)ccc2CC1.Cl (stereo not drawn) [Example 5, N-methyl-2-methoxy-6,7-dihydro [5H] benzocycloheptene-7-methanamine hydrochloride]	100	1400			50
CNCC1C=Cc2cc(O)ccc2CC1.Cl (stereo not drawn) [Example 6, 7-methylaminomethyl-6,7-dihydro [5H] benzocycloheptene-2-ol-hydrochloride]	75	980	+	+	20
